Values quoted from earlier work in US10466148B2, “Use of platinum wire electrode and synthetic fiber for flow assisted electro-enhanced solid phase microextraction” (KING FAHD UNIVERSITY OF PETROLEUM AND MINERALS, priority 2015, dated 2019).

Legend:
[1] = not given; remark: listed apart in the source
[2] = not given; remark: listed apart in the source
[3] = not given; remark: listed apart in the source

Compound	Diffusion coefficient in air	Vapor pressure at 20-25° C. [1]	Diffusion coefficient in water [2]	Henry's law constant at 20° C. [3]
Clc1ccc(Oc2ccccc2)cc1 [CPPE, 4-chlorophenyl phenyl ether]	0.048 cm^2 s^−1	0.0016 mmHg	6.18E−06 cm^2 s^−1	0.012
Brc1ccc(Oc2ccccc2)cc1 [BPPE, 4-bromophenyl phenyl ether]	0.047 cm^2 s^−1	0.0005 mmHg	6.27E−06 cm^2 s^−1	0.009
